# Experiments:
# [1] = parameters: method as in earlier work; conditions: humans, total of central and peripheral volume; ref 22 (Lu et al, manuscript submitted); cited from earlier work
# [2] = Placental transfer (fetal vs maternal plasma), rabbit embryofetal development study; type: in vivo; conditions: female, fetal plasma (relative to maternal plasma), rabbits, 3 hours post dose, Day 20 postcoitum, read-out: Fetal plasma concentration as % of maternal plasma concentration
# [3] = tested on: heat-treated human liver microsomes (Homo sapiens); experiment: Enzyme kinetics in heat-treated HLM (FMO inactivation); type: in vitro ADME; conditions: heated vs non-heated control HLM
# Sequence of heat-treated human liver microsomes (Homo sapiens) (P08684 2-503): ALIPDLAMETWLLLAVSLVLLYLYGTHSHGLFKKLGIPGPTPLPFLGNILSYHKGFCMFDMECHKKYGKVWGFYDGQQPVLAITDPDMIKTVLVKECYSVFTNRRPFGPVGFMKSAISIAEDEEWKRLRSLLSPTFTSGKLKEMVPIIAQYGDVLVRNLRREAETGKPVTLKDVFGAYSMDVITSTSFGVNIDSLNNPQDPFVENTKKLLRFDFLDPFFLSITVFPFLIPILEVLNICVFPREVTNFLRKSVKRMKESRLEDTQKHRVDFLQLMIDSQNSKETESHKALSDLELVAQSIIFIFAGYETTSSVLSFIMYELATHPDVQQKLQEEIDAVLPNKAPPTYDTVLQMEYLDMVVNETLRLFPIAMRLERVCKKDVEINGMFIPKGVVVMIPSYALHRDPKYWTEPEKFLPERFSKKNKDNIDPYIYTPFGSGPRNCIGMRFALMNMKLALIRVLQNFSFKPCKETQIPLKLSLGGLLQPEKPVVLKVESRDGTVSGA
# Description: (§1) In vitro incubations were carried out in 100‐mM potassium phosphate buffer (pH 7.4) and 5‐mM MgCl2 with a total volume of 200 µL. Substrate and either human liver microsomes (HLM, BD Biosciences, mixed gender pool of n = 50) or recombinant human enzymes (BD Biosciences) were added and pre‐incubated for 3 minutes at 37°C. The reaction was started by addition of a fresh solution of NADPH (1 mmol/L final concentration). The samples were incubated at 37°C with agitation of 500 rpm. For incubations with CYP2A6, CYP2C9, CYP2C18, and CYP4A11, the phosphate buffer was replaced by TRIS buffer (100 mmol/L, pH 7.4) and for flavin‐containing monooxygenases (FMOs), a glycine buffer (50 mM, pH 9.5) was used.
# (§2) The enzymatic reaction was stopped and the protein was precipitated by addition of an equal volume of methanol. After 30 min at −80°C, the samples were centrifuged at 30'000 x g for 15 min. The supernatant was withdrawn. Aliquots were analyzed by LSC and the supernatant was diluted with water to obtain a final solution containing less than 20% of the organic solvent. For samples of low substrate concentration, supernatants were evaporated to dryness under nitrogen, then re‐suspended in water containing less than 20% of methanol. Samples were analyzed by HPLC combined with radiodetection. […]
# [4] = molecular target: heat-treated human liver microsomes (Homo sapiens, UniProt P08684); experiment: as above; type: in vitro ADME; conditions: human, microsomes
# Sequence of heat-treated human liver microsomes (P08684 2-503): as above
# Description: as §1, §2
# [5] = Human ADME study: quantitative metabolite profiling in plasma; type: in vivo; conditions: human plasma pools n=6, from metabolite patterns
# Description: A plasma pool across the six healthy volunteers included in the study was prepared at the time points of 1 hour, 3 hours, 24 hours, and 48 hours post dose. For each time point, an equal volume of plasma was taken from each subject and combined. Plasma pool samples were processed by protein precipitation with acetonitrile. The protein pellet that resulted from precipitation with acetonitrile was washed further with additional aliquots of acetonitrile. All acetonitrile washes were combined and evaporated under nitrogen. For the 3‐ and 24‐hour plasma pools, the extraction procedure was slightly modified, including precipitation of the plasma proteins by addition of a 1:1 mixture of acetonitrile:methanol, followed by washing of the protein pellet with the same solvent mixture. All extracts were reconstituted with a solution of 15‐mM ammonium formate and acetonitrile (95:5 v/v). Extraction and reconstitution recoveries were measured in all four plasma samples in order to calculate and overall recovery. Quantitative metabolite profiling in plasma was accomplished using a Shimadzu Prominence high‐performance liquid chromatography (HPLC) system (Shimadzu, Columbia, MD, USA), coupled with fraction collection and analysis of total radioactivity in individual fractions using AMS (as described above). A second injection of each sample, conducted immediately after the first, was used to provide HPLC fractions for metabolite identification. The fractions identified as containing radioactivity from the AMS analysis were analyzed by HPLC coupled with high‐resolution mass spectrometry to identify the metabolites. The HPLC‐MS/MS methodology used is described below.
# [6] = Rat ADME study: excretion, mass balance, metabolite profiling with radiolabeled ribociclib; type: in vivo
# Description: ADME studies (including QWBA in pigmented and non‐pigmented rats) using radiolabeled ribociclib were conducted in rat and dog. Relevant institutional and national guides for the care and use of laboratory animals were followed.
# Metabolite profiling was conducted on plasma, urine, bile, and feces samples in the rat and dog ADME studies, and further metabolite profiling on plasma and milk was conducted in a dedicated rat milk excretion study.
# Plasma samples obtained from these studies were extracted with equal volumes of acetonitrile. Additional extractions of the protein pellet with acetonitrile and/or acetone were conducted as needed to maximize radioactivity recovery. Feces samples were initially extracted with two to four volumes of acetonitrile. Additional extractions of the pellet following centrifugation and removal of supernatant were conducted with acetonitrile and/or acetone as needed to maximize radioactivity recovery. Urine and bile samples were analyzed directly following centrifugation. Radioactivity recoveries following the centrifugation step were measured by LSC. Milk samples were extracted with two volumes of acetonitrile, following centrifugation and removal of supernatant, the pellets were re‐suspended in 100 µL of water and re‐extracted with 200 µL acetonitrile.
# Metabolite profiling in the ADME studies was conducted using liquid chromatography‐mass spectrometry. Radioactivity profiles were generated by diversion of the majority of the post‐column flow into 96‐well yttrium silicate scintillation‐coated plates (Deepwell Lumaplates; Perkin Elmer Life and Analytical Sciences Inc), by means of Gilson FC204 fraction collectors (Gilson). Metabolites were identified by mass spectrometry (Waters QTOF operating under MassLynx 4.1) and, where feasible, by comparison with authentic reference standards.
# [7] = rat, oral dosing of radiolabeled ribociclib
smiles,measurement,setting,value
"CN(C)C(=O)c1cc2cnc(Nc3ccc(N4CCNCC4)cn3)nc2n1C1CCCC1 [ribociclib, Ribociclib]",apparent volume of distribution at steady state,[1],1090 L
same,Kp at 3 h,[2],0.06
same,FMO metabolism as share of intrinsic clearance in HLM,[3],about 15%
same,Ki at 0.25 h,[4],328 µM
same,"AUC0-48h, % of total [14C]-AUC0-48",[5],approximately 43.5%
same,"AUC0-48h, % of total [14C]-AUC0-48",[5]; listed as Ribociclib,43.5%
same,Recovery of radioactivity in mass balance study,[6]; rat,approximately 90%
same,Absorption,"[6]; rat ADME study, derived from AUC of total radiolabeled components after i.v. and p.o. dosing",66%
same,dose eliminated in bile (radioactivity),"[6]; rat, i.v.",61.4 % of dose
same,ribociclib in feces of bile duct-cannulated rats,"[6]; rat, i.v.",8 % of the dose
same,unchanged ribociclib recovered in bile,"[6]; rat, i.v.",1 % of the dose
same,radioactivity found in feces,[6]; [7],84.0%
same,radioactivity found in urine,[6]; [7],5.9%
same,ribociclib in feces,"[6]; rat, p.o.",22.4 % of the oral dose
same,unchanged ribociclib in urine,"[6]; rat, p.o.",2.7 % of the dose

# — paper PMC7287031 (Pharmacology Research & Perspectives, 2020)
